In BigSolDB 2.1:

O=C(O)c1cc([N+](=O)[O-])cc([N+](=O)[O-])c1O
solubility (mole fraction)
Conditions	278.15 K	283.15 K	288.15 K	293.15 K	298.15 K	303.15 K	308.15 K	313.15 K	318.15 K	323.15 K
in 1,4-dioxane	–	–	0.044	0.0495	0.0554	0.0622	0.0695	0.0778	0.0877	0.0994
in DMF	0.0853	0.0951	0.107	0.119	0.135	0.152	0.171	0.19	0.214	0.241
in DMSO	–	–	–	0.0749	0.0869	0.0999	0.114	0.13	0.149	0.172
in NMP	0.0924	0.103	0.116	0.13	0.146	0.166	0.185	0.207	0.234	0.264
in acetonitrile	0.0108	0.0125	0.0149	0.0177	0.0209	0.0248	0.029	0.0349	0.0411	0.0485
in cyclohexane	–	0.00292	0.0036	0.00449	0.00558	0.00686	0.00836	0.0104	0.0128	0.0156
in ethanol	0.0465	0.0518	0.0582	0.0659	0.0756	0.0862	0.0977	0.11	0.124	0.14
in ethyl acetate	0.046	0.0501	0.0554	0.0619	0.0687	0.0771	0.0858	0.0966	0.109	0.122
in ethylene glycol	0.0245	0.0277	0.0316	0.0365	0.0415	0.0476	0.054	0.062	0.0709	0.082
in isobutanol	0.0139	0.0161	0.0198	0.0244	0.0295	0.0358	0.0439	0.0506	0.0589	0.0712
in isopropanol	0.0262	0.03	0.0348	0.0402	0.0463	0.053	0.0608	0.0702	0.0808	0.0944
in n-butanol	0.0116	0.0141	0.0172	0.0199	0.024	0.0301	0.0345	0.0424	0.049	0.0592
in n-propanol	0.0364	0.0403	0.0456	0.0521	0.0597	0.068	0.0769	0.0866	0.0972	0.111
in water	0.000646	0.000779	0.000964	0.0012	0.00145	0.00171	0.00198	0.00245	0.00301	0.00381
